This is an account of results in patent US20180346518A1, “LYSOBACTIN FOR USE IN THE TREATMENT OF BOVINE MASTITIS” (BAYER ANIMAL HEALTH GMBH, priority 2015, published 2018).

Experiment [1] concerns Staphylococcus aureus ATCC 29740. As to the kind of experiment: in vitro kill kinetics in milk. Format: cell-based. Conditions: at 24 h; full-fat milk; 4, 8, 16, 32 and 64 μg/mL. The protocol:
(§1) In order to assess the ability of lysobactin to kill bacteria in milk, flasks containing different concentrations of lysobactin in store-bought full-fat milk were inoculated with 1-2×10^6 colony forming units/ml of a representative strain of either Staphylococcus aureus or Streptococcus uberis. The flasks were incubated for 24-48 hours in a shaking water bath at 35+/−2° C., and viable bacterial counts in each flask were determined at several time-points by diluting and plating samples on agar plates. A reduction of the number of viable bacteria in the initial inoculum by at least 99.9% is defined as bactericidal activity.
(§2) The kill kinetics of lysobactin against Staphylococcus aureus ATCC 29740 and Streptococcus uberis ATCC 27958 in milk were determined for concentrations of lysobactin of 4, 8, 16, 32 and 64 μg/mL. Results are depicted in FIG. 1 (CFU: colony forming units). A cidality at 24 h and 48 h, respectively, can be postulated for S. aureus and S. uberis.

The subject of experiment [2] is Streptococcus uberis ATCC 27958. Nature of the experiment: in vitro kill kinetics in milk. Particulars: at 48 h; full-fat milk; 4, 8, 16, 32 and 64 μg/mL. Format: cell-based. Here is the method: as §1, §2
A further experiment has as its system S. aureus. Nature of the experiment: resistance development during serial passaging. Particulars: constant sub-MIC exposure, 33 days. Format: cell-based, Staphylococcus aureus. The protocol:
(§3) The appearance of MIC changes during constant exposure of bacteria to sub-MIC concentrations of lysobactin was assessed by serial passaging experiments. On the first day the MICs of S. aureus and S. uberis were assessed by microbroth dilution MIC methodology as described by the Clinical and Laboratory Standards Institute (CLSI). Each day for the following 33 consecutive days, bacteria from the well containing the highest concentrations allowing full growth were collected and used to inoculate new 96-well plates and to assess the MIC during constant exposure to lysobactin. The MIC obtained on each day was plotted over time. Rifampicin, which is known to result in quick changes of the MIC, was used as positive control.

The next experiment relates to S. uberis. Nature of the experiment: resistance development during serial passaging. Format: cell-based, Streptococcus uberis. Conditions: constant sub-MIC exposure, 33 days. The protocol:
as §3

The next experiment has as its system Streptococcus uberis. Nature of the experiment: Streptococcus uberis challenge mouse mastitis model. It is filed as in vivo, lactating mice. Particulars: 100, 200, 400 or 800 μg/gland hydrogel, 18 h after infection; all glands, with one exception in the highest dosing group. The protocol:
The efficacy of lysobactin (formulated in a hydrogel at pH 4.7) was tested in a Streptococcus uberis challenge mouse mastitis model. Twenty lactating mice were experimentally infected on the fourth pair of mammary glands with S. uberis around 12-15 days after birth of the offspring. Four hours after inoculation, groups of four mice were treated on the same glands with lysobactin at 100, 200, 400, or 800 μg/gland formulated as hydrogel. The fifth group was treated solely with the hydrogel vehicle as negative control. Eighteen hours after infection the animals were euthanized, the glands were removed, homogenized, and bacterial colony forming units (CFUs) were determined by established microbiological methods. Subsequently CFU/mL homogenate as well as CFU/g of gland were calculated. The detection limit was approximately 100 CFU/g of gland. Antimicrobial activity of lysobactin against Strep uberis was determined by comparison of the mean CFUs/gland of the different dosing groups and the negative control group.

The next experiment has as its system Staphylococcus aureus. Nature of the experiment: dairy cow udder infection model with S. aureus. It is filed as in vivo, lactating dairy cows. The protocol:
Fifteen healthy lactating dairy cows were experimentally infected with the mastitis pathogen Staphylococcus aureus on all four udder quarters. […] Treatments were randomly assigned to 42 udder quarters in total, either 50 mg lysobactin per quarter (in 11 quarters), or 150 mg Lysobactin (in 11 quarters), or Ubrolexin® (in 9 quarters), or saline solution (in 11 quarters). Only udder quarters that were bacteriologically positive for the challenge organism immediately prior to treatment (n=42) were eligible for assessment of microbiological and clinical cure. The diseased quarters were treated with these intramammary formulations two times with an interval of 24 hours in between. Udders were clinically examined and milk samples were taken before treatment and several times after that until three weeks after the second administration. Milk was inspected visually for deviation in its consistency and samples were evaluated for presence of the challenge organism and for somatic cell count to confirm the diagnosis mastitis. Diseased udder quarters were considered microbiologically cured when Staphylococcus aureus found in milk samples shortly before treatment could not be isolated from any milk sample taken within the time period between the third and the twenty-first day after the second treatment. Clinical cure was achieved when the local symptoms of mastitis had completely disappeared, and recovery of somatic cell counts (SCC) as parameter of udder inflammation was attained when all counts remained below 500.000 cells per mL of milk in the period mentioned above.

The mark [3] stands for this setting: 50 mg per quarter, Day 3 after second treatment.
Where [4] appears, read: 50 mg per quarter, Day 21 after second treatment.
Setting [5] is: 150 mg per quarter, Day 3 after second treatment.
[6] abbreviates: 150 mg per quarter, Day 21 after second treatment.

Numbered stars: 1 amine (or outer) side, 2 acyl side, 3 side chain; on linkers, the order of the positions; unused ones are H or OH. Bridge positions count the residues as written; N and C are the ends. Square brackets hold non-standard residues; d marks the D form. Peptide text beside a SMILES is read from it. Phe(3R-OH) = O=C([C@@H](N[*:1])[C@H](O[*:3])c1ccccc1)[*:2]; Asn(3S-OH) = NC(=O)[C@@H](O)[C@H](N)C(=O)O; Leu(3R-OH) = CC(C)[C@@H](O)[C@H](N)C(=O)O; aThr = C[C@H](O)[C@H](N)C(=O)O

`CC[C@H](C)[C@@H]1NC(=O)[C@@H](CCCNC(=N)N)NC(=O)[C@H](CC(C)C)NC(=O)[C@H]([C@H](O)C(C)C)NC(=O)[C@@H](NC(=O)[C@H](CC(C)C)NC(=O)[C@H](N)CC(C)C)[C@@H](c2ccccc2)OC(=O)[C@H](CO)NC(=O)[C@H]([C@H](O)C(N)=O)NC(=O)CNC(=O)[C@H]([C@H](C)O)NC1=O` [lysobactin] (H-[dL]L[Phe(3R-OH)][Leu(3R-OH)]L[dR]I[aThr]G[Asn(3S-OH)]S; ester 3-C): the “kill kinetics, bactericidal activity (cidality)” value in experiment [1] and in experiment [2] was “cidality” each time. For the same molecule, the “MIC change during serial passaging” value against S. aureus and in the experiment with S. uberis was “remain constant” in each case. In the experiment with Streptococcus uberis, the “bacterial counts in glands” value is on record as < 10^2 CFU/g. Also, the microbiological cure rate with Staphylococcus aureus (50 mg per quarter, 2 treatments 24 h apart, Day 3 after second treatment) turned out to be 73%; with Staphylococcus aureus (setting [4]), 27%; with Staphylococcus aureus (setting [5]) it was 73%; in the experiment on Staphylococcus aureus (setting [6]), 45%. In addition, the SCC recovery rate in the experiment on Staphylococcus aureus (setting [3]) came out at 36%; in the experiment on Staphylococcus aureus (setting [4]), 45%; with Staphylococcus aureus (setting [5]), 36%; with Staphylococcus aureus (setting [6]), 91%. For the same molecule, the “local clinical cure rate” value in the experiment on Staphylococcus aureus (setting [3]) was found to be 45%; in the experiment with Staphylococcus aureus (setting [4]), 73%; with Staphylococcus aureus (setting [5]) it was 37%; in the experiment on Staphylococcus aureus (setting [6]), 82%.
